Data as given in US5759842A, “In vitro HIV integrase inhibitors” (Merck & Co., Inc., priority 1996, dated 1998).

Experiments:
HIV Integrase = HIV Integrase (Human immunodeficiency virus type 1 group M subtype B, UniProt P04585); test: Assay for Inhibition of Strand Transfer by HIV Integrase; type: biochemical
Protocol: Assay for Inhibition of Strand Transfer by HIV Integrase
Inhibition of strand transfer was conducted according to Hazuda, D. J. et al. Nucleic Acids Res., 22, 1121 (1994), hereby incorporated by reference for these purposes.

[1] = target: DNP-stimulatedATPase activity of rat liver mitochondria; conditions: Koenig et al. 1993, read-out: IC50, DNP-stimulated ATPase activity; cited from earlier work
[2] = target: DNP-stimulatedATPase activity of rat liver mitoplast; conditions: Koenig et al. 1993, read-out: IC50, DNP-stimulated ATPase activity; cited from earlier work

CCCCCC1C(C)=CC2CC(C)CCC2C1(C)C(O)=C1C(=O)C(CO)N(C)C1=O (centres unmarked) [Compound C]
IC50 (HIV Integrase): 5 µM

CC=CC=CC1C(C)=CC2CC(C)CCC2C1(C)C(O)=C1C(=O)C(CO)N(C)C1=O (centres unmarked) [Compound B]
IC50 (HIV Integrase): 11 µM

CC=CC1C=CC2CC(C)CCC2C1(C)C(O)=C1C(=O)C(CO)N(C)C1=O (centres unmarked) [Compound A, equisetin]
IC50 [1]: ~0.008 µM
IC50 [2]: ~0.008 µM
IC50 (HIV Integrase): 7 µM
